Consider 13 molecules from US20260014147A1, “STAT6 DEGRADERS” (Gilead Sciences, Inc., priority 2024, published 2026).

The first experiment deals with T1, STAT6 (endogenous, HiBiT-tagged) in HeLa LgBiT clone 4.14 cells (Homo sapiens, UniProt P42226).
T1 construct: These cells express endogenous STAT6; host or cells: HeLa LgBiT clone 4.14
T1 sequence (P42226 1-847): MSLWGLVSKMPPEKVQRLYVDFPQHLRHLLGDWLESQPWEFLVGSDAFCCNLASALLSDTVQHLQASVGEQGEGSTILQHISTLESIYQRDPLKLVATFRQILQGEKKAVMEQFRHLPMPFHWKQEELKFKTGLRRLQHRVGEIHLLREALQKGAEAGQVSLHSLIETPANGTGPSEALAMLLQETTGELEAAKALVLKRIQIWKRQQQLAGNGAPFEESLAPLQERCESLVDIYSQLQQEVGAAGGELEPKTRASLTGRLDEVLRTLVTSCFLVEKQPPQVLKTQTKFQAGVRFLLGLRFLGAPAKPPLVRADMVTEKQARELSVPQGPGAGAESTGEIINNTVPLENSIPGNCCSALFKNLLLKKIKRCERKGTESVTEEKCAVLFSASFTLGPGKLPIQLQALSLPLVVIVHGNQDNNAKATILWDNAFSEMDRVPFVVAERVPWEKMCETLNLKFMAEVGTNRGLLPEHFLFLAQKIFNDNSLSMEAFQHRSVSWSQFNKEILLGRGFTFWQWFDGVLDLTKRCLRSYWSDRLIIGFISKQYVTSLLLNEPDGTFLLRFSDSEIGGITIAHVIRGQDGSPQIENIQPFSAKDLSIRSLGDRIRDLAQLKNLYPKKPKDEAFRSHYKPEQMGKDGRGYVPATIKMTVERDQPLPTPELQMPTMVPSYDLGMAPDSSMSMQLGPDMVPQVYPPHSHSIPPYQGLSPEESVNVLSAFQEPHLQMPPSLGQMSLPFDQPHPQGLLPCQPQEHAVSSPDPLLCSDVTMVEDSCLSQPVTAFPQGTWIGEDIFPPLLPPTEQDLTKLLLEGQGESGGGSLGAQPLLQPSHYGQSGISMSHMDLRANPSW
Briefly: STAT6 Degrader Assay (HiBiT based, HeLa LgBiT clone 4.14 cells, luminescence, DC50). Type of experiment: cell-based. Conditions: DC50 provided for test compounds with >80% Emax, geometric mean, read-out: STAT6 degradation DC50. The procedure: This was a HiBit based assay. A HeLa cell line stably transfected with a small protein, LgBit (Large Bit) was obtained from Promega. These cells express endogenous STAT6. A small 11 amino acid gene sequence (HiBiT) was inserted in the STAT6 gene using CRISPR technology. Once STAT6 protein is expressed in the cells, the HiBiT sequence will bind the LgBit in the cells resulting in a functional NanoBiT protein, giving a luminescent tag to STAT6. Single cell clones were prepared and the clone 4.14 was selected for the assay based on that clone showing high luminescence, high STAT6 phosphorylation upon stimulation with IL-4, and inhibition of luminescence when cells were treated with STAT6 siRNA. HeLa LgBiT clone 4.14 cells were suspended in DMEM with 10% FCS, 1% Pen/Strep, Na-pyrovate and Hygromycin B, at a concentration of […]. 5000 cells were added pr well of a 384 well plate and 20 nL of compound was added by Echo® liquid handler. NN6394A (terfenadine, a toxic compound) was added to control wells at 50 µM concentration to establish the assay window. In these wells the cells are dead which equals 100% degradation of STAT6. After 4-24 h of incubation at 37° C. under 5% CO2/95% air, […] substrate (Nano-GLO®) was added to the wells and the plates were centrifuged and incubated for 0.5 h. The luminescence in the wells as a measure of non-degraded STAT6 was measured in a plate reader (BMG Pherastar FSX). The dose-response curves for Examples 2a2, 2t1, 2 h3, and 2r1 are shown below (where percent degradation is plotted vs. test compound concentration in M on a log-scale).
A general note: The HiBiT peptide binds its large partner to form an active luciferase.
Broadly, the DC50 is the concentration giving 50% degradation. Regarding `C[C@@H](c1cc2c(-c3ccc4[nH]ncc4c3)ccnc2n1C)N1CCC(c2ccc(C(=O)N3CCC(CN4CCN(c5ccc(NC6CCC(=O)NC6=O)cc5F)CC4)CC3)cc2)CC1` (stereo partly drawn) [Example 2c17, 3-((4-(4-((1-(4-(1-((S)-1-(4-(1H-indazol-5-yl)-1-methyl-1H-pyrrolo[2,3-b]pyridin-2-yl)-ethyl)piperidin-4-yl)benzoyl)piperidin-4-yl)methyl)piperazin-1-yl)-3-fluorophenyl)amino)piperidine-2,6-dione], the half-maximal degradation concentration (DC50) came to 2.7 nM.
For `COc1cc(C2CCN(Cc3cc4n(n3)CCN(C(=O)c3ccc(C5CCN([C@@H](C)c6cc7c(-c8ccc(N)nc8)ccnc7n6C)CC5)cc3)C4)CC2)ccc1NC1CCC(=O)NC1=O` (stereo partly drawn) [Example 2c44, 3-((4-(1-((5-(4-(1-((S)-1-(4-(6-aminopyridin-3-yl)-1-methyl-1H-pyrrolo[2,3-b]pyridin-2-yl)ethyl)piperidin-4-yl)benzoyl)-4,5,6,7-tetrahydropyrazolo[1,5-a]pyrazin-2-yl)methyl)piperidin-4-yl)-2-methoxyphenyl)amino)piperidine-2,6-dione], the DC50 was 0.7 nM.

The same experiment, now with this note: Emax provided for test compounds with <80% Emax (and 2c15), geometric mean, read-out: STAT6 degradation Emax.
By Emax is commonly meant the size of the effect at its maximum, as opposed to the concentration needed. For the molecule `C[C@H](c1cc2c(-c3ccc(N)nc3)ccnc2n1C)N1CCC(c2ccc(C(=O)N3CCC(CN4CCN(c5ccc(NC6CCC(=O)NC6=O)cc5F)CC4)CC3)cc2)CC1` (stereo partly drawn) [Example 2c13, 3-((4-(4-((1-(4-(1-((R)-1-(4-(6-aminopyridin-3-yl)-1-methyl-1H-pyrrolo[2,3-b]pyridin-2-yl)ethyl)-piperidin-4-yl)benzoyl)piperidin-4-yl)methyl)piperazin-1-yl)-3-fluorophenyl)amino)piperidine-2,6-dione], the Emax is under 20%.
Still for that read-out and setting: the figure for `Cc1cc(C(=O)N2CCC(CN3CCN(c4ccc(NC5CCC(=O)NC5=O)cc4F)CC3)CC2)cc(C)c1C1=CCN(Cc2cc3c(-c4ccc(N)nc4)ccnc3n2C)CC1` (stereo not shown) [Example 2c15, 3-((4-(4-((1-(4-(1-((4-(6-aminopyridin-3-yl)-1-methyl-1H-pyrrolo[2,3-b]pyridin-2-yl)methyl)-1,2,3,6-tetrahydropyridin-4-yl)-3,5-dimethylbenzoyl)piperidin-4-yl)methyl)piperazin-1-yl)-3-fluorophenyl)amino)piperidine-2,6-dione] is 80 to 90%; for `Cn1c(CN2CCC(c3ccc(C(=O)N4CCC(CN5CCN(c6c(F)cc(NC7CCC(=O)NC7=O)cc6F)CC5)CC4)cc3)CC2)cc2c(-c3ccc4[nH]ncc4c3)ccnc21` (stereo not shown) [Example 2c34, 3-((4-(4-((1-(4-(1-((4-(1H-indazol-5-yl)-1-methyl-1H-pyrrolo[2,3-b]pyridin-2-yl)methyl)-piperidin-4-yl)benzoyl)piperidin-4-yl)methyl)piperazin-1-yl)-3,5-difluorophenyl)amino)piperidine-2,6-dione] it is 70 to 80%.
On to `Cn1c(CN2CC=C(c3ccc(C(=O)N4CCn5nc(CN6CCC(c7ccc(NC8CCC(=O)NC8=O)cc7F)CC6)cc5C4)cn3)CC2)cc2c(-c3ccc(N)nc3)ccnc21` (stereo not shown) [Example 2c37, 3-((4-(1-((5-(1′-((4-(6-aminopyridin-3-yl)-1-methyl-1H-pyrrolo[2,3-b]pyridin-2-yl)methyl)-1′, 2′, 3′, 6′-tetrahydro-[2,4′-bipyridine]-5-carbonyl)-4,5,6,7-tetrahydropyrazolo[1,5-a]pyrazin-2-yl)methyl)piperidin-4-yl)-3-fluorophenyl)amino)piperidine-2,6-dione], for which the maximal response (Emax) is under 20%.
On the same count and under the same terms, the figure for `Cn1c(CN2CC=C(c3ccc(C(=O)N4CCn5nc(CN6CCC(c7ccc(NC8CCC(=O)NC8=O)cc7F)CC6)cc5C4)cn3)CC2)cc2c(-c3ccc(N)nn3)ccnc21` (stereo not shown) [Example 2c38, 3-((4-(1-((5-(1′-((4-(6-aminopyridazin-3-yl)-1-methyl-1H-pyrrolo[2,3-b]pyridin-2-yl)methyl)-1′, 2′, 3′, 6′-tetrahydro-[2,4′-bipyridine]-5-carbonyl)-4,5,6,7-tetrahydropyrazolo[1,5-a]pyrazin-2-yl)methyl)piperidin-4-yl)-3-fluorophenyl)amino)piperidine-2,6-dione] is under 20%; for `Cn1c(CN2CCN(c3ccc(C(=O)N4CCC(CN5CCN(c6ccc(NC7CCC(=O)NC7=O)cc6F)CC5)CC4)cc3)CC2)cc2c(-c3ccc(N)nc3)ccnc21` (stereo not shown) [Example 2c39, 3-((4-(4-((1-(4-(4-((4-(6-aminopyridin-3-yl)-1-methyl-1H-pyrrolo[2,3-b]pyridin-2-yl)methyl)piperazin-1-yl)benzoyl)piperidin-4-yl)methyl)piperazin-1-yl)-3-fluorophenyl)amino)piperidine-2,6-dione] it is under 20%.
The same measure, in the same setting: the figure for `Cc1cc(C(=O)N2CCn3nc(CN4CCC(c5ccc(NC6CCC(=O)NC6=O)cc5F)CC4)cc3C2)cnc1C1=CCN(Cc2cc3c(-c4ccc(N)nn4)ccnc3n2C)CC1` (stereo not shown) [Example 2c48, 3-((4-(1-((5-(1′-((4-(6-aminopyridazin-3-yl)-1-methyl-1H-pyrrolo[2,3-b]pyridin-2-yl)methyl)-3-methyl-1′, 2′, 3′, 6′-tetrahydro-[2,4′-bipyridine]-5-carbonyl)-4,5,6,7-tetrahydropyrazolo[1,5-a]pyrazin-2-yl)methyl)piperidin-4-yl)-3-fluorophenyl)amino)piperidine-2,6-dione] is under 20%; for `COCc1nc2cc(-c3ccnc4c3cc(CN3CCC(c5ccc(C(=O)N6CCC(CN7CCN(Cc8ccc(-n9cc(N%10CCC(=O)NC%10=O)nn9)cc8)CC7)CC6)cc5)CC3)n4C)ccc2[nH]1` [Example 2c56, 1-(1-(4-((4-((1-(4-(1-((4-(2-(methoxymethyl)-1H-benzo[d]imidazol-5-yl)-1-methyl-1H-pyrrolo[2,3-b]pyridin-2-yl)methyl)piperidin-4-yl)benzoyl)piperidin-4-yl)methyl)piperazin-1-yl)methyl)-phenyl)-1H-1,2,3-triazol-4-yl) dihydropyrimidine-2,4 (1H,3H)-dione] it is under 20%.
For the molecule `CNc1ccc(-c2ccnc3c2cc([C@@H](C)N2CC=C(c4c(C)cc(C(=O)N5CCC(CCn6cc(-c7ccc(NC8CCC(=O)NC8=O)cc7)nn6)CC5)cc4F)CC2)n3C)cn1` (stereo partly drawn) [Example 2c57, 3-((4-(1-(2-(1-(3-fluoro-5-methyl-4-(1-((R)-1-(1-methyl-4-(6-(methylamino)pyridin-3-yl)-1H-pyrrolo[2,3-b]pyridin-2-yl)ethyl)-1,2,3,6-tetrahydropyridin-4-yl)benzoyl)piperidin-4-yl)ethyl)-1H-1,2,3-triazol-4-yl)phenyl)amino)piperidine-2,6-dione], the maximal response (Emax) was under 20%.
Same read-out and setting: the result for `Cn1c(CN2CCC(c3ccc(C(=O)N4CCC(CN5CCN(c6ccc(C(=O)NC7CCC(=O)NC7=O)nn6)CC5)CC4)cc3)CC2)cc2c(-c3ccc4[nH]ncc4c3)ccnc21` (stereo not shown) [Example 2d1, 6-(4-((1-(4-(1-((4-(1H-indazol-5-yl)-1-methyl-1H-pyrrolo[2,3-b]pyridin-2-yl)methyl)-piperidin-4-yl)benzoyl)piperidin-4-yl)methyl)piperazin-1-yl)-N-(2,6-dioxopiperidin-3-yl) pyridazine-3-carboxamide] reads 50 to 60%.
The same measure, in the same setting: the figure for `Cn1c(CN2CCC(c3ccc(C(=O)N4CCC(CN5CCN(C(=O)c6ccc(NC7CCC(=O)NC7=O)cc6F)CC5)CC4)cc3)CC2)cc2c(-c3ccc(N)nc3)ccnc21` (stereo not shown) [Example 2e2, 3-((4-(4-((1-(4-(1-((4-(6-aminopyridin-3-yl)-1-methyl-1H-pyrrolo[2,3-b]pyridin-2-yl)methyl)-piperidin-4-yl)benzoyl)piperidin-4-yl)methyl)piperazine-1-carbonyl)-3-fluorophenyl)amino)piperidine-2,6-dione] is under 20%.
